Experimental findings from PubChem BioAssay (NCI) are described below.

The structures appear in SMILES notation.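 Method: 48-hour compound exposure of cells in 96-well plates, five concentrations, linear interpolation of endpoints. Definition used: TGI = concentration required for complete inhibition of growth.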

Assay in all cases: DTP human tumour cell line panel, 48 h
Test [1] has as its system 786-0 renal.
Test [2] relates to CAKI-1 renal.
For test [3], the system named is EKVX NSCLC.
Test [4] relates to HCT-15 colon.
The test system of test [5] is K-562 leukemia.
The test system of test [6] is LOX IMVI melanoma.
Test [7] deals with MOLT-4 leukemia.
For test [8], the system named is NCI-H226 lung.
Test [9] relates to NCI-H23 lung.
In test [10] the test system is NCI-H522 lung.
Test [11] relates to OVCAR-5 ovarian.
For test [12], the system named is RPMI-8226 leukemia.
For test [13], the system named is RXF 393 renal.
The test system of test [14] is SF-295 CNS.
In test [15] the test system is U251 CNS.
For test [16], the system named is UACC-257 melanoma.
In test [17] the test system is UACC-62 melanoma.
Test [18] relates to MCF7 breast.

In general, TGI refers to the concentration giving total growth inhibition. `N#CC1=C(N2CCCC2)NC(=O)CC1=O`: the TGI in [1], in test [2], in [3], in test [4], in test [5] and in [6] was above 100 µM each time. Also, the total growth inhibition concentration (TGI) in test [7], in [8], in test [9], in test [10], in test [11] and in test [12] was above 100 µM in each case. For the same molecule, the total growth inhibition concentration (TGI) in test [13], in test [14], in [15], in test [16] and in [17] was above 100 µM each time.

For `O=C1c2ccccc2S[C@@H](O)[C@@H]2CCCN12`, the TGI in test [1], in test [3], in test [4], in test [5], in [6] and in [7] was above 100 µM each time. Further, the TGI in [9], in [10], in test [11], in test [12], in [13] and in [14] was above 100 µM in each case. For the same molecule, the concentration for total growth inhibition (TGI) in test [15], in test [16] and in test [17] was above 100 µM in each case.

`O=C1CCC(c2ccccc2)C(O)(C(=O)O)C1` (centres undefined): the concentration for total growth inhibition (TGI) in test [1], in [2], in test [3], in test [4], in test [5] and in test [6] was above 100 µM in each case. Further, the TGI in [7], in [8], in test [9], in [10], in [11] and in test [12] was above 100 µM throughout. The TGI in [14], in test [15], in test [16] and in test [17] was above 100 µM in each case.

In the case of `Cc1cc(=O)[nH]c(NNC(C#N)c2ccc(O)cc2)n1` (centres undefined), the TGI in [1], in [2], in test [4], in test [5], in test [6] and in test [7] was above 100 µM each time. Also, the concentration for total growth inhibition (TGI) in test [8], in test [9], in test [10], in test [11], in test [12] and in [13] was above 100 µM each time. Moreover, the concentration for total growth inhibition (TGI) in test [14], in test [15], in [16] and in test [17] was above 100 µM throughout.

In the case of `CC1=CC(=O)NP(=O)(Oc2ccc(C)cc2)N1` (centres undefined), the concentration for total growth inhibition (TGI) in [1], in test [2], in [3], in test [4], in [5] and in test [6] was above 100 µM throughout. The TGI in test [7], in [8], in [9], in test [10], in test [11] and in [12] was above 100 µM in each case. Besides, the TGI in [14], in test [15], in test [16] and in test [17] was above 100 µM throughout.

As for `N#CCCN(c1ccc(/C=C2\N=C(c3ccc(Cl)cc3)OC2=O)cc1)S(=O)(=O)c1ccccc1`, the concentration for total growth inhibition (TGI) in test [1], in test [2], in test [3], in test [4], in test [5] and in [6] was above 100 µM throughout. The TGI in test [7], in test [8], in [9], in test [10], in test [11] and in test [12] was above 100 µM in each case. Moreover, the TGI in test [14], in test [15], in test [16] and in test [17] was above 100 µM throughout.

For `CC1CN=C(Nc2ccc(S(N)(=O)=O)cc2)S1` (centres undefined), the total growth inhibition concentration (TGI) in test [1] is above 100 µM; in test [2], above 100 µM; in test [3], above 100 µM; in [4] it was above 100 µM; in test [5], above 100 µM; in [6] it was above 10 µM. Besides, the TGI in test [18], in test [7], in test [9], in [11], in test [12] and in [14] was above 100 µM in each case. The TGI in [15] and in test [16] was above 100 µM in each case.

`CC(=O)NC(CCCN)C(=O)NCc1ccccc1` (centres undefined): the concentration for total growth inhibition (TGI) in [1], in [2], in test [3], in test [4], in test [5] and in test [6] was above 100 µM each time. Besides, the total growth inhibition concentration (TGI) in test [7], in test [8], in test [9], in test [10], in [11] and in test [12] was above 100 µM throughout. In addition, the total growth inhibition concentration (TGI) in test [13], in test [14], in test [15], in test [16] and in test [17] was above 100 µM throughout.

With `Cn1c(=O)c2c(nc(NCCCCl)n2CC(=O)NCCCCl)n(C)c1=O`, the concentration for total growth inhibition (TGI) in [1], in test [2], in test [3], in test [4], in [5] and in test [6] was above 100 µM each time. Also, the TGI in [7], in test [8], in [9], in test [10], in [11] and in [12] was above 100 µM each time. For the same molecule, the concentration for total growth inhibition (TGI) in test [13], in test [14], in test [15], in test [16] and in test [17] was above 100 µM in each case.
